According to publication PMC3975964, “Protective effect of a sesamin derivative, 3-bis (3-methoxybenzyl) butane-1, 4-diol on ischemic and hypoxic neuronal injury” (Journal of Biomedical Science, 2014):

Assays:
PGE2 = assay: Hypoxia-induced PGE2 release (ELISA), BV-2; assay type: cell-based, murine; conditions: BV-2 cells, hypoxia 30 min, BBD 10 and 20 μM
Procedure: (§1) On the day of experiment, culture media were replaced with glucose-free DMEM, then, gassed with 85% N2, 10% H2, and 5% CO2 for various time periods in the absence or presence of various doses of BBD.
Cytokines (IL-1β, IL-6) and PGE2 were measured using ELISA kits (R&D, Minneapolis, MN, USA). The absorbance at 450 nm was determined using a microplate reader (spectraMAX 340).

neurons = assay: Toxicity of BBD alone to neurons; assay type: cell-based; conditions: BBD 100 μM alone, data not shown
focal cerebral ischemia = assay: Focal cerebral ischemia (MCAO), infarct size by TTC staining; assay type: in vivo, Sprague–Dawley rats; conditions: SD rats, BBD 10 mg/kg i.p. 90 min after MCAO; ischemia group 16.1%
Procedure: Twenty-four male Sprague-Dawley (SD) rats (200~250 gm) were purchased from National Animal Center, Taipei, Taiwan and randomly divided into the control (normal saline), and BBD groups. The experiment was approved by Institutional Animal Care and Use Committee, Taichung Veterans General Hospital (IACUC LA-97490). Rats were injected intraperitoneally (i.p.) with BBD (10 mg/kg) 90 min after MACO experiment. Each SD rat was anesthetized with chlorohydrate (400 mg/kg) i.p. and its body temperature was maintained at 37°C with a heating pad (CMA/150). A midline neck incision was made and the right carotid artery was exposed and separated from the vago-sympathetic trunk. The right carotid artery was loosely encircled with a 4-O suture for later occlusion. The SD rat's head was placed in a stereotaxic frame (David Kopf, CA, USA) with the nose bar positioned 4.0 mm below the horizontal line. Following a midline incision, the skull was partially removed to expose the right middle cerebral artery. The middle cerebral artery was loosely encircled with an 8-O suture for later occlusion. A focal cerebral ischemia was induced by occlusion of the right common carotid artery and the right cerebral artery (MCAO) for 60 min, followed by reperfusion. […]

Caspase-3 = assay: Western blot of hypoxia-induced signaling, BV-2: Caspase-3; assay type: cell-based, murine; conditions: BV-2 cells, 10 min hypoxia, BBD 20 μM
Procedure: as §1
(§2) Samples containing 25 μg of protein were separated on 12.5% (w/v) sodium dodecyl sulfate-polyacrylamide gels, and transferred to immobilon polyvinylidenedifluoride membranes (Millipore, Bedford, USA). The membranes were incubated for 2 h with 5% (w/v) dry skim milk in TBST buffer to block non-specific binding, then ERK, p38 JNK, AKT-1, COX-2, caspase-3, β-actin proteins for neuron cells were detected by a chemiluminescence detection system according to the manufacturer’s instructions (ECL, Amersham, Berkshire, UK).

ROS in PC12 cells = assay: Hypoxia-induced ROS generation (DCF), PC12; assay type: cell-based, rat; conditions: hypoxia 30 min, BBD 1, 10, 20 μM
Procedure: as §1
Intracellular accumulation of ROS was determined using H2DCF-DA, which is a nonfluorescent compound that accumulates in cells following deacetylation. H2DCF then reacts with ROS to form fluorescent dichlorofluorescein (DCF). PC12 cells were plated in 96-well plates and grown for 24 h before addition of DMEM plus 10 μM H2DCF-DA, incubated for 60 min at 37°C, and treated with various concentrations of BBD for hypoxia 30 min. Cells were then washed twice at room temperature with Hank’s balanced salt solution (HBSS without phenol red). Cellular fluorescence was monitored on a Fluoroskan Ascent fluorometer (Labsystems Oy, Helsinki, Finland) using an excitation wavelength of 485 nm and emission wavelength of 538 nm.

AKT-1 = assay: Western blot of hypoxia-induced signaling, BV-2: AKT-1; assay type: cell-based, murine; conditions: BV-2 cells, 10 min hypoxia, BBD 20 μM
Procedure: as §1, §2

PC12 cells = assay: LDH release under hypoxia, PC12; assay type: cell-based, rat; conditions: BBD 1, 10, 20 μM
Procedure: Murine BV-2 microglial cell line was maintained in DMEM supplemented with 10% (v/v) FBS, 100 U/ml penicillin and 100 μg/ml streptomycin (P/S) in a humidified incubator under 5% CO2 at 37°C. Rat pheochromacytoma PC12 cell line was maintained in DMEM supplemented with 10% FBS, 5% horse serum, P/S at 37°C under 5% CO2. Confluent cultures were passaged by trypsinization. In all experiments, the cells were treated with BBD immediately before hypoxia. BBD was dissolved in DMSO. The final concentration of DMSO added to cells never exceeded 0.1% (v/v).
as §1
Cytotoxicity was determined by measuring the release of LDH. PC12 or BV-2 cells treated with various concentrations of BBD were stressed with hypoxia for one hour and the supernatant was then assayed for LDH activity. An absorbance was read at 490/630 nm using a spectraMAX 340 microtiter plate reader. Data were expressed as the mean percent of viable cells vs. the control.

COc1cccc(CC(CO)C(CO)Cc2cccc(OC)c2)c1 (stereo not shown) [BBD, 3-bis (3-methoxybenzyl) butane-1,4-diol]
hypoxia-induced PGE2 release (PGE2): decreased PGE2 release from BV-2 cells significantly | toxicity to neurons (neurons): not toxic | infarct size (focal cerebral ischemia): 4.9% | reduced expression of Caspase-3 (Caspase-3): 50 ± 7% | hypoxia-induced ROS accumulation (DCF signal) (ROS in PC12 cells): decreasing the ROS accumulation | reduced expression of AKT-1 (AKT-1): 45 ± 6% | hypoxia-induced LDH release (PC12 cells): decreased
